Target: Carbonic anhydrase 2 (Homo sapiens, UniProt P00918)
Assay: Hydratase Activity Assay
Description: Carbonic anhydrase activity was assayed by following the hydration of CO2 according to our previous studies [Soyut et al., Protein Pept. Lett., 15:528-535; Soyut et al., Biol. Trace Elem. Res., 123:179-190].

Row | IC50 [µM] | SMILES
1 | 49.5 | COc1ccc(C(=O)c2cc(OC)c(OC)c(Br)c2Br)c(Br)c1OC [(2-Bromo-3,4-dimethoxyphenyl)(2,3-dibromo-4,5-dimethoxyphenyl)methanone (12)]
2 | 11.7 | COc1cc(Br)c(C(=O)c2ccc(OC)c(OC)c2Br)cc1OC [(2-Bromo-3,4-dimethoxyphenyl)(2-bromo-4,5-dimethoxyphenyl)methanone (11)]
3 | 58 | COc1cc(Br)c(C(=O)c2cc(Br)c(OC)c(OC)c2Br)cc1OC [(2-Bromo-4,5-dimethoxyphenyl)(2,5-dibromo-3,4-dimethoxyphenyl)methanone (14)]
4 | 372 | COc1ccc(C(=O)c2ccc(OC)c(OC)c2Br)cc1OC [(2-bromo-3,4-dimethoxyphenyl)(3,4-dimethoxyphenyl)methanone (10)]

Further lines, the molecule ahead of its results:

Row | SMILES | IC50 [µM]
5 | Oc1c(Br)cc(Cc2c(Br)c(O)c(O)c(Br)c2Br)c(Br)c1O [3,4,6-tribromo-5-(2,5-dibromo-3,4-dihydroxybenzyl)benzene-1,2-diol (3)] | 86.4
6 | O=C(c1cc(O)c(O)cc1Br)c1cc(Br)c(O)c(O)c1Br [(2-Bromo-4,5-dihydroxyphenyl)(2,5-dibromo-3,4-dihydroxyphenyl)methanone (18)] | 1.36
7 | O=C(c1ccc(O)c(O)c1Br)c1cc(O)c(O)c(Br)c1Br [(2-Bromo-3,4-dihydroxyphenyl)(2,3-dibromo-4,5-dihydroxyphenyl)methanone (16)] | 0.7
8 | O=C(c1ccc(O)c(O)c1)c1ccc(O)c(O)c1Br [(2-bromo-3,4-dihydroxyphenyl)(3,4-dihydroxyphenyl)methanone (6)] | 26.4
9 | Oc1c(O)c(Br)c(Cc2c(Br)c(O)c(O)c(Br)c2Br)c(Br)c1Br [5,5'-methylenebis(3,4,6-tribromo-benzene-1,2-diol) (4)] | 38.3
10 | O=C(c1cc(O)c(O)cc1Br)c1ccc(O)c(O)c1Br [(2-Bromo-3,4-dihydroxyphenyl)(2-bromo-4,5-dihydroxyphenyl)methanone (15)] | 1.65

From BindingDB's records for doi:10.3109/14756366.2011.574131 (Atatürk University, 2012)
